This passage reports inhibition results from US8765773B2, “Substituted hydroxamic acids and uses thereof” (Millennium Pharmaceuticals, Inc., priority 2010, dated 2014).

The target in the test is T1, purified human HDAC6 (Homo sapiens, UniProt Q9UBN7).
T1 construct: purchased BPS Bioscience 5006
T1 sequence (Q9UBN7 1-1215): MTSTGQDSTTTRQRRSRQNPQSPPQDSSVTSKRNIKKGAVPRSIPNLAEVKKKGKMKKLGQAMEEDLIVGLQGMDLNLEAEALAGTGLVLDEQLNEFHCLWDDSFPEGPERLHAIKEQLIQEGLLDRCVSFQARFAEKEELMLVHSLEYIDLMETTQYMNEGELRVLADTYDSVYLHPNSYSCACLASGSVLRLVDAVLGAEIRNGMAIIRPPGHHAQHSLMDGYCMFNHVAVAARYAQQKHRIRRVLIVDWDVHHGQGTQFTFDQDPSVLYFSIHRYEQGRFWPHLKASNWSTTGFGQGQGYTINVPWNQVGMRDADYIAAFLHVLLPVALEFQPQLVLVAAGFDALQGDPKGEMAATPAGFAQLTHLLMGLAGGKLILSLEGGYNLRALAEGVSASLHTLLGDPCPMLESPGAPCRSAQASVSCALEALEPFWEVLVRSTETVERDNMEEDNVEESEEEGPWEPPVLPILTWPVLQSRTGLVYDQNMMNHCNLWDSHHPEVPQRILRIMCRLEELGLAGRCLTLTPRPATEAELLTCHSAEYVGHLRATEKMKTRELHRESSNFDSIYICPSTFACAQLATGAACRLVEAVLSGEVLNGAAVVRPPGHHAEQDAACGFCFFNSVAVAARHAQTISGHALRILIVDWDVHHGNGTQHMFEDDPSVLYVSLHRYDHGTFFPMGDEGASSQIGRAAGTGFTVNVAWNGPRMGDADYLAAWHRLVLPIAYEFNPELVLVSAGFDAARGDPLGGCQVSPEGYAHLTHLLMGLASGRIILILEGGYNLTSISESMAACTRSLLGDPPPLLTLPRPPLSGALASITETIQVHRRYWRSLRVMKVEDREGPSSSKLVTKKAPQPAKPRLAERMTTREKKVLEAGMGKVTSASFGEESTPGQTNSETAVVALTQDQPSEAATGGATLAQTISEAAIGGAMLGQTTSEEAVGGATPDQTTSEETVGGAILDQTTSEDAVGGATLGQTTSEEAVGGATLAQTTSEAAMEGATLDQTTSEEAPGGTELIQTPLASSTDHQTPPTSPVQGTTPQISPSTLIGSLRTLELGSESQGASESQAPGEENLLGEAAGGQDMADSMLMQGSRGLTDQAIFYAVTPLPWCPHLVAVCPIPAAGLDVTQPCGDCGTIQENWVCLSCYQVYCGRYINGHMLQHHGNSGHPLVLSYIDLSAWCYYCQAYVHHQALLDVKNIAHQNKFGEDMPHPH
Kind of test: HDAC6 Enzyme Assay. The format is biochemical. As to conditions: compound concentration 0.37 μM, read-out: Percent Inhibition. The method in brief:
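Readout is AMC fluorescence (Ex 340 nm, Em 460 nm) after trypsin cleavage of the deacetylated Ac-Arg-Gly-Lys(Ac)-AMC product. Reaction: purified human HDAC6, compound or vehicle, 1 hour, 30° C, quenched by trichostatin A. Single-concentration percent inhibition or IC50 calculated versus DMSO-treated samples.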
As for `Cc1noc(C)c1-c1cccc(CCn2cnc3ccc(C(=O)NO)cc3c2=O)c1` [Compound I-336, 3-{2-[3-(3,5-dimethylisoxazol-4-yl)phenyl]ethyl}-N-hydroxy-4-oxo-3,4-dihydroquinazoline-6-carboxamide], the inhibition at 0.37 µM was 90.5%.
Under `O=C(NO)c1ccc2c(CO)cn(Cc3ccccc3)c(=O)c2c1` [Compound I-337, 2-benzyl-N-hydroxy-4-(hydroxymethyl)-1-oxo-1,2-dihydroisoquinoline-7-carboxamide] stands 57.7%.
For `CC(C)C(c1ccccc1)n1cnc2ccc(C(=O)NO)cc2c1=O` (stereo not shown) [Compound I-338, N-hydroxy-3-(2-methyl-1-phenylpropyl)-4-oxo-3,4-dihydroquinazoline-6-carboxamide], the inhibition at 0.37 µM was 96.8%.
On to `COc1cccc(-c2cccc(CCn3cnc4ccc(C(=O)NO)cc4c3=O)c2)c1` [Compound I-339, N-hydroxy-3-[2-(3′-methoxybiphenyl-3-yl)ethyl]-4-oxo-3,4-dihydroquinazoline-6-carboxamide], for which the inhibition at 0.37 µM turned out to be 89.9%.
The figure for `O=C(NO)c1ccc2ncn(CCC(c3ccccc3)C3CCCCC3)c(=O)c2c1` (stereo not shown) [Compound I-340, 3-(3-cyclohexyl-3-phenylpropyl)-N-hydroxy-4-oxo-3,4-dihydroquinazoline-6-carboxamide] is 94.9%; for `CS(=O)(=O)c1cccc(-c2cccc(CCn3cnc4ccc(C(=O)NO)cc4c3=O)c2)c1` [Compound I-341, N-hydroxy-3-{2-[3′-(methylsulfonyl)biphenyl-3-yl]ethyl}-4-oxo-3,4-dihydroquinazoline-6-carboxamide] it is 94.5%; for `CC(C)c1cccc(-c2cccc(CCn3cnc4ccc(C(=O)NO)cc4c3=O)c2)c1` [Compound I-342, N-hydroxy-3-[2-(3′-isopropylbiphenyl-3-yl)ethyl]-4-oxo-3,4-dihydroquinazoline-6-carboxamide] it is 69.5%.
The figure for `O=C(NO)c1ccc2ccn(CCC3CCNCC3)c(=O)c2c1` [Compound I-343, N-hydroxy-1-oxo-2-(2-piperidin-4-ylethyl)-1,2-dihydroisoquinoline-7-carboxamide] is 91.3%.
Under `O=C(NO)c1ccc2ccn(CCc3ccccn3)c(=O)c2c1` [Compound I-344, N-hydroxy-1-oxo-2-(2-pyridin-2-ylethyl)-1,2-dihydroisoquinoline-7-carboxamide] stands 93.1%; under `O=C(NO)c1ccc2ncn(CCc3cccc(-c4cc(Cl)cc(Cl)c4)c3)c(=O)c2c1` [Compound I-345, 3-[2-(3′,5′-dichlorobiphenyl-3-yl)ethyl]-N-hydroxy-4-oxo-3,4-dihydroquinazoline-6-carboxamide], 81.9%; under `O=C(NO)c1ccc2ccn(-c3ccccc3F)c(=O)c2c1` [Compound I-346, 2-(2-fluorophenyl)-N-hydroxy-1-oxo-1,2-dihydroisoquinoline-7-carboxamide], 87%.
With `O=C(NO)c1ccc2ncn(CCc3cccc(-c4c(F)cccc4F)c3)c(=O)c2c1` [Compound I-347, 3-[2-(2′,6′-difluorobiphenyl-3-yl)ethyl]-N-hydroxy-4-oxo-3,4-dihydroquinazoline-6-carboxamide], the inhibition at 0.37 µM turned out to be 63.7%.
As to `COCc1cn(Cc2ccccc2)c(=O)c2cc(C(=O)NO)ccc12` [Compound I-394, 2-benzyl-N-hydroxy-4-(methoxymethyl)-1-oxo-1,2-dihydroisoquinoline-7-carboxamide], the inhibition at 0.37 µM came out at 49.2%.
Under `COc1ccc(-c2nc3cc(C(=O)NO)ccc3c(=O)[nH]2)cc1` [Compound I-395, N-hydroxy-2-(4-methoxyphenyl)-4-oxo-3,4-dihydroquinazoline-7-carboxamide] stands 80.8%; under `O=C(NO)c1ccc2c(=O)[nH]c(-c3cccc(-c4ccncc4)c3)nc2c1` [Compound I-396, N-hydroxy-4-oxo-2-(3-pyridin-4-ylphenyl)-3,4-dihydroquinazoline-7-carboxamide], 62.3%.
Under `O=C(NO)c1ccc2ccn(-c3ccnc(NC(=O)C4CC4)c3)c(=O)c2c1` [Compound I-397, 2-{2-[(cyclopropylcarbonyl)amino]pyridin-4-yl}-N-hydroxy-1-oxo-1,2-dihydroisoquinoline-7-carboxamide] stands 96.3%; under `O=C(NO)c1ccc2c(=O)[nH]c(-c3cccnc3)nc2c1` [Compound I-398, N-hydroxy-4-oxo-2-pyridin-3-yl-3,4-dihydroquinazoline-7-carboxamide], 79%.
The figure for `CCn1nccc1-c1nc2cc(C(=O)NO)ccc2c(=O)[nH]1` [Compound I-399, 2-(1-ethyl-1H-pyrazol-5-yl)-N-hydroxy-4-oxo-3,4-dihydroquinazoline-7-carboxamide] is 61.8%.
In the case of `Cc1cn(Cc2ccccc2)c(=O)c2cc(C(=O)NO)ccc12` [Compound I-400, 2-benzyl-N-hydroxy-4-methyl-1-oxo-1,2-dihydroisoquinoline-7-carboxamide], the inhibition at 0.37 µM amounted to 73.9%.
As for `O=C(NO)c1ccc2c(=O)[nH]c(-c3ccccc3)nc2c1` [Compound I-401, N-hydroxy-4-oxo-2-phenyl-3,4-dihydroquinazoline-7-carboxamide], the inhibition at 0.37 µM was determined as 88.2%.
The figure for `CC(C)Cc1nc2cc(C(=O)NO)ccc2c(=O)[nH]1` [Compound I-402, N-hydroxy-2-isobutyl-4-oxo-3,4-dihydroquinazoline-7-carboxamide] is 91.7%; for `Cc1ncc(-c2nc3cc(C(=O)NO)ccc3c(=O)[nH]2)n1C` [Compound I-403, 2-(1,2-dimethyl-1H-imidazol-5-yl)-N-hydroxy-4-oxo-3,4-dihydroquinazoline-7-carboxamide] it is -4.61%.
The figure for `O=C(NO)c1ccc2c(=O)[nH]c(-c3nc4ccccc4o3)nc2c1` [Compound I-404, 2-(1,3-benzoxazol-2-yl)-N-hydroxy-4-oxo-3,4-dihydroquinazoline-7-carboxamide] is 5.79%; for `O=C(NO)c1ccc2c(=O)[nH]c(-c3ccc4ccccc4c3)nc2c1` [Compound I-405, N-hydroxy-2-(2-naphthyl)-4-oxo-3,4-dihydroquinazoline-7-carboxamide] it is 92%.
On to `Cc1ccccc1Cc1nc2cc(C(=O)NO)ccc2c(=O)[nH]1` [Compound I-406, N-hydroxy-2-(2-methylbenzyl)-4-oxo-3,4-dihydroquinazoline-7-carboxamide], for which the inhibition at 0.37 µM came to 86.6%.
Under `NCc1cn(Cc2ccccc2)c(=O)c2cc(C(=O)NO)ccc12` [Compound I-407, 4-(aminomethyl)-2-benzyl-N-hydroxy-1-oxo-1,2-dihydroisoquinoline-7-carboxamide] stands 51.1%.
For the compound `O=C(NO)c1ccc2c(=O)[nH]c(CCc3ccccc3)nc2c1` [Compound I-408, N-hydroxy-4-oxo-2-(2-phenylethyl)-3,4-dihydroquinazoline-7-carboxamide], the inhibition at 0.37 µM was 94.9%.
For the compound `O=C(NO)c1ccc2c(=O)[nH]c(CC3CCCCC3)nc2c1` [Compound I-409, 2-(cyclohexylmethyl)-N-hydroxy-4-oxo-3,4-dihydroquinazoline-7-carboxamide], the inhibition at 0.37 µM came out at 92.5%.
